From patent US12384818B2, “Cyclin-dependent kinase 5 (CDK5) inhibitory peptides” (Massachusetts Institute of Technology, priority 2017, dated 2025)
Ends that are not written are not given here. Peptide text beside a SMILES is read from it. * marks the point of attachment. FITC = O=C1OC2(c3ccc(O)cc3Oc3cc(O)ccc32)c2ccc(NC(=S)*)cc21; Ahx = NCCCCCC(=O)O

Columns and labels:
[1] = system: Human iPSC-derived neural progenitor cells; conditions: 1 μM, 2 hr; FIG. 9B
[2] = Blood brain barrier penetration in mice, targeted mass spectrometry of brain lysate; assay type: in vivo; conditions: 24 hours; for #Spec (number of spectra) / Area (peak area): tryptic fragment in brain lysate, mice 40 mg/kg i.p.
Experimental: Wild type mice were intraperitoneally injected with a single dose (40 mg/kg) of Cdk5i, and were sacrificed 24 hours after the injection. Prior to extracting the brain, mice were transcardially perfused with 40 mL of cold phospho-buffered saline (PBS) to ensure clearance of any Cdk5i circulating in the blood that may not have crossed the blood brain barrier. After the perfusion, the brains were dissected into two hemispheres and one hemisphere was lysed with cold lysis buffer (RIPA) to extract total protein. Total protein was then briefly run on a 12% acrylamide gel to separate large proteins and then digested with a trypsin enzyme and subjected to targeted mass spectrometry analysis using Cdk5i peptide sequence of SEQ ID NO. 3 linked to a GGG spacer/linker and FITC (Cdk5i sequence: FITC-GGG-SEQ ID NO. 3).
A substantial portion (11 amino acids out of 12) of the Cdk5i sequence including the conjugated tat protein sequence were detected using mass spectrometry based on the number of spectra and peak area. Using targeted mass spectrometry, brain lysate from mice injected with Cdk5i show an enrichment for Cdk5i based on # of spectra and peak area (2nd row of data in Table 1).

Row | Molecule | penetration of plasma membrane (intracellular FITC signals) [1] | #Spec (number of spectra) [2] | Area (peak area) [2] | portion of the Cdk5i sequence detected in brain ([2]; wild type mice, single dose 40 mg/kg intraperitoneally, perfused brain, mass spectrometry) | blood brain barrier penetration / enrichment in brain lysate ([2]; wild type mice, single dose 40 mg/kg intraperitoneally, targeted mass spectrometry)
1 | CC[C@H](C)[C@H](NC(=O)CNC(=O)[C@H](Cc1ccccc1)NC(=O)[C@H](C)NC(=O)[C@H](CCCNC(=N)N)NC(=O)[C@H](C)NC(=O)CCCCCNC(=S)Nc1ccc2c(c1)C(=O)OC21c2ccc(O)cc2Oc2cc(O)ccc21)C(=O)N1CCC[C@H]1C(=O)N[C@H](C(=O)N[C@@H](CCCNC(=N)N)C(=O)N[C@@H](CS)C(=O)N[C@@H](Cc1ccc(O)cc1)C(=O)N[C@@H](CO)C(=O)N[C@@H](Cc1ccc(O)cc1)C(=O)NCC(=O)N[C@@H](CCCNC(=N)N)C(=O)N[C@@H](CCCCN)C(=O)N[C@@H](CCCCN)C(=O)N[C@@H](CCCNC(=N)N)C(=O)N[C@@H](CCCNC(=N)N)C(=O)N[C@@H](CCC(N)=O)C(=O)N[C@@H](CCCNC(=N)N)C(=O)N[C@@H](CCCNC(=N)N)C(=O)N[C@@H](CCCNC(=N)N)C(=O)O)C(C)C [FITC-Ahx-Cdk5i-Tat] ({FITC-Ahx}-ARAFGIPVRCYSYGRKKRRQRRR-OH) | able to penetrate plasma membrane |  |  |  | 
2 | ARAFGIPVR |  | 12 | 3.83E+07 |  | 
3 | ARAFGIPVRCYS [CDK5i] |  |  |  | 11 amino acids out of 12 | enrichment
4 | R.AFGIPVRCYSYGR.K: tryptic fragment of Cdk5i-Tat detected in mouse brain lysate by mass spectrometry |  | 22 | 8.42E+08 |  | 
5 | R.CYSYGRK.K: tryptic fragment of Cdk5i-Tat detected in mouse brain lysate by mass spectrometry |  | 12 | 6.13E+08 |  | 
